Experimental data from patent publication US11857544B2, “Composition or method including (t)ew-7197 for treating or preventing corneal endothelial diseases” (THE DOSHISHA, priority 2017, dated 2024).

Experiments:
Caspase 3/7 = Caspase 3/7 activity (Caspase-Glo 3/7 Assay) in TGF-β-stimulated iFECD; type: cell-based, human; conditions: in the order of 0.01, 0.1, 1, and 10 μM
Procedure: were seeded on a 96-well plate at a ratio of 3×10^3 cells per well, and cultured until reaching confluence at 37° C. (5% CO2). DMEM+10% FBS+1% P/S was used as the medium. After 24 hours, the medium was removed. SB431542 (WAKO, 192-16541) and EW-7197 (Selleck Chemicals, 57530) were added so that the final concentration would each be 0.01, 0.1, 1, or 10 μM, and the medium was cultured for 24 hours. DMEM+2% FBS+1% P/S was used as the medium. After 24 hours, the medium was removed. 10 ng/ml of Transforming Growth Factor-132 Human recombinant (WAKO, 200-19911) and SB431542 were added so that the final concentration would be 0.01, 0.1, 1, and 10 μM, and the medium was cultured for 24 hours. DMEM+2% FBS+1% P/S was used as the medium. After 24 hours, the cell morphology was observed under a phase contrast microscope. After observation, Caspase 3/7 activity was measured using Caspase-Glo 3/7 Assay by the following procedures. The medium was discarded so that the amount would be 50 μl per well, and a Caspase Glo 3/7 Assay Reagent (mixture of Caspase-Glo 3/7 Assay Buffer and Caspase-Glo 3/7 Assay Substrate) (Promega, G8091) solution was added at 50 μl/well so that the ratio thereof to the medium would be 1:1. The process was hereinafter conducted without exposure to light. The mixture was mixed thoroughly using a shaker for 2 minutes at about 120 min^-1, and incubated for 40 minutes at room temperature. After the incubation, 80 μl was transferred to an Assay plate (Corning, 3912, Assay plate 96 well, white polystyrene), and absorbance was measured using a GloMax-Multi Detection System (Promega, E7051). A caspase inhibitor, i.e., 10μ MZ-VD-FMK (WAKO, 262-02061) was used as a positive control.

[1] = test system: immortalized human corneal endothelial cells from a Fuchs' endothelial corneal dystrophy patient (iFECD); assay: Suppression of TGF-β-induced corneal endothelial cell disorder, observed under a phase contrast microscope; type: cell-based; conditions: for effect of suppressing corneal endothelial cell disorder: Example 1, iFECD, 24 h pretreatment then 10 ng/ml TGF-β 24 h
Procedure: The medium was removed from a culture dish culturing immortalized human corneal endothelial cells from a Fuchs' endothelial corneal dystrophy patient (iFECD), and 1×PBS(-) preheated to 37° C. was added and washed. This was repeated twice. 1×PBS(-) was added again and the medium was incubated for 5 minutes at 37° C. (5% CO2). After removing the PBS(-), 0.05% Trypsin-EDTA (Nacalai Tesque, 32778-34) was added and incubated for 5 minutes at 37° C. (5% CO2). The medium was then suspended and centrifuged for 3 minutes at 1500 rpm to retrieve cells. DMEM (Nacalai Tesque, 08456-36)+10% FBS (Biowest, S1820-500)+1% P/S (Nacalai Tesque, 26252-94) was used as the medium. The immortalized human corneal endothelial cells from a Fuchs' endothelial corneal dystrophy patient (iFECD) were seeded on a 12-well plate at a ratio of 8.0×10^4 cells per well and cultured for 24 hours at 37° C. (5% CO2). DMEM+10% FBS+1% P/S was used as the medium. After 24 hours, the medium was exchanged and cultured again for 24 hours. DMEM+2% FBS+1% P/S was used as the medium. After 24 hours, the medium was removed. 10 ng/ml of Transforming Growth Factor-132 Human recombinant (WAKO, 200-19911) was added, and the medium was cultured for 24 hours. DMEM+2% FBS+1% P/S was used as the medium. After 24 hours, the cell morphology and apoptosis were observed under a phase contrast microscope. After […] were seeded on a 12-well plate and cultured for 24 hours, the medium was removed. SB431542 (WAKO, 192-16541) and EW-7197 (Selleck Chemicals, 57530) were added so that the final concentration would each be 0.1, 0.3, 1, 3, or 10 μM, and the medium was cultured for 24 hours. DMEM+2% FBS+1% P/S was used as the medium. After 24 hours, the medium was removed. 10 ng/ml of Transforming Growth Factor-132 Human recombinant (WAKO, 200-19911) as well as SB431542 and EW-7197 were added so that the final concentration would each be 0.1, 0.3, 1, 3, or 10 μM, and the medium was cultured for 24 hours. DMEM+2% FBS+1% P/S was used as the medium. After 24 hours, the cell morphology and apoptosis were observed under a phase contrast microscope. After […] were seeded on a 12-well plate at a ratio of 7.0×10^4 cells and cultured for 24 hours, the medium was removed. EW-7197 (Selleck Chemicals, 57530) was added so that the final concentration would be 0.001, 0.003, 0.01, 0.03, 0.1, 0.3, 1, 3, 10, or 30 μM, and the medium was cultured for 24 hours. DMEM+2% FBS+1% P/S was used as the medium. After 24 hours, the medium was removed. 10 ng/ml of Transforming Growth Factor-132 Human recombinant (WAKO, 200-19911) and EW-7197 were added so that the final concentration would be 0.001, 0.003, 0.01, 0.03, 0.1, 0.3, 1, 3, 10, or 30 μM, and the medium was cultured for 24 hours. DMEM+2% FBS+1% P/S was used as the medium. After 24 hours, the cell morphology and apoptosis were observed under a phase contrast microscope.

iFECD = assay: Cell survival rate (Cell Titer-Glo Luminescent Cell Viability Assay); type: cell-based, human; conditions: iFECD; all concentrations of 0.01, 0.1, 1, and 10 μM; 48 hours
Procedure: were seeded on a 96-well plate at a ratio of 3×10^3 cells per well, and cultured until reaching confluence at 37° C. (5% CO2). DMEM+10% FBS+1% P/S was used as the medium. After 24 hours, the medium was removed. SB431542 (WAKO, 192-16541) and EW-7197 (Selleck Chemicals, 57530) were added so that the final concentration would each be 0.01, 0.1, 1, or 10 μM, and the medium was cultured for 48 hours. DMEM+2% FBS+1% P/S was used as the medium. After 24 hours, the cell morphology was observed under a phase contrast microscope. After observation, the cell survival rate was analyzed using Cell Titer-Glo Luminescent Cell Viability Assay by the following procedures. The medium was discarded so that the amount would be 50 μl per well, and Cell Titer-Glo Luminescent Cell Viability Assay solution (Promega, G7572) was added at 50 μl/well so that the ratio to the medium would be 1:1. The process was hereinafter conducted without exposure to light. The mixture was mixed thoroughly using a shaker for 2 minutes at about 120 min^-1, and incubated for 10 minutes. After the incubation, 80 μl was transferred to an Assay plate (Corning, 3912, Assay plate 96 well, white polystyrene), and absorbance was measured using a GloMax-Multi Detection System (Promega, E7051).

For `NC(=O)c1ccc(-c2nc(-c3ccc4c(c3)OCO4)c(-c3ccccn3)[nH]2)cc1` [SB431542, reference compound], the “activity of Caspase 3/7” value (Caspase 3/7) was “reduced”, the “effect of suppressing corneal endothelial cell disorder” value ([1]; compound at 3 μM and 10 μM) was “suppressed” and the “effect of suppressing corneal endothelial cell disorder” value ([1]; compound at 10 μM) was “effectively suppressed”. The “effect of suppressing corneal endothelial disorders” value ([1]; summary statement, at sub-μM (1 μM to 0.1 μM)) was “not observed” and the “cell survival rate compared to a control group” value (iFECD) was “a significant difference was not found”.
